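Exposure lasted 48 hours, with cells grown in 96-well plates and compounds tested at five concentrations. At the GI50, growth is halved. TGI is the concentration that stops growth completely.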

For 20 compounds, TGI and GI50 results are on record in PubChem BioAssay (NCI).

Test systems include TK-10 renal; K-562 leukemia; UO-31 renal; RPMI-8226 leukemia; OVCAR-8 ovarian; MDA-MB-435; ACHN renal; HOP-62 NSCLC; NCI-H23 lung; U251 CNS.
Test in all cases: NCI tumour cell line growth inhibition, 48 h

For `[N-]=[N+]=NCc1cccc(Nc2cc(=O)[nH]c(=O)[nH]2)c1`, the TGI in the assay on TK-10 renal, with K-562 leukemia, in the assay with UO-31 renal, in the assay with RPMI-8226 leukemia, in the assay on OVCAR-8 ovarian and in the assay on MDA-MB-435 was more than 100 µM throughout. Moreover, the TGI in the assay with ACHN renal, with HOP-62 NSCLC and in the assay on NCI-H23 lung was more than 100 µM throughout.
Take `O=[N+]([O-])c1ccc(N=Nc2c(O)c(S(=O)(=O)O)cc3cc(S(=O)(=O)O)ccc23)cc1`: the TGI in the assay on TK-10 renal, in the assay on K-562 leukemia, with UO-31 renal, in the assay on RPMI-8226 leukemia, in the assay with OVCAR-8 ovarian and in the assay on MDA-MB-435 was more than 100 µM in each case. In addition, the TGI in the assay on ACHN renal, in the assay with HOP-62 NSCLC, in the assay on U251 CNS and with NCI-H23 lung was more than 100 µM in each case.
On to `Cc1[nH]c2ccccc2c1C=Nc1ccc(N=Cc2c(C)[nH]c3ccccc23)cc1`, for which the TGI in the assay on TK-10 renal was more than 100 µM; with K-562 leukemia it was 47 µM; with UO-31 renal it was more than 100 µM; in the assay with RPMI-8226 leukemia it was 45.3 µM; with OVCAR-8 ovarian, more than 100 µM; in the assay on MDA-MB-435, 51.7 µM. Further, the TGI in the assay on ACHN renal, in the assay with HOP-62 NSCLC, in the assay with U251 CNS and with NCI-H23 lung was more than 100 µM throughout.
`NC(=O)c1ccc2c(c1)S(=O)(=O)c1ccccc1C2=O`: the TGI in the assay with TK-10 renal, in the assay with K-562 leukemia, with UO-31 renal, with RPMI-8226 leukemia, with OVCAR-8 ovarian and with MDA-MB-435 was more than 100 µM in each case. Further, the TGI in the assay on ACHN renal, in the assay with HOP-62 NSCLC, in the assay with U251 CNS and in the assay on NCI-H23 lung was more than 100 µM throughout.
Take `CCCCCCCCCCCCCCCCCCNc1ccn(C2OC(COP(=O)(O)OCC3OC(n4cc(C)c(=O)[nH]c4=O)CC3N=[N+]=[N-])C(O)C2O)c(=O)n1` (stereo not drawn): the TGI in the assay with TK-10 renal is 69.5 µM; with K-562 leukemia, 50.3 µM; with UO-31 renal, 58.8 µM; in the assay with RPMI-8226 leukemia it was 32.7 µM; with OVCAR-8 ovarian, 48.8 µM; in the assay on MDA-MB-435, 63.2 µM. In addition, the TGI is more than 100 µM in the assay on ACHN renal, 45 µM in the assay with HOP-62 NSCLC, 36.2 µM in the assay on U251 CNS and 36 µM in the assay with NCI-H23 lung.
For `COc1ccc2c(c1)N=C1CSC(c3ccccc3Cl)N1C2` (stereo not drawn), the TGI amounted to 41.8 µM with TK-10 renal; 75.7 µM in the assay on K-562 leukemia; 1.8 µM in the assay on UO-31 renal; 35.3 µM in the assay on RPMI-8226 leukemia; 42.4 µM in the assay with OVCAR-8 ovarian; 27.7 µM in the assay on MDA-MB-435. Moreover, the TGI was found to be 41.8 µM in the assay on ACHN renal, 34.5 µM in the assay with HOP-62 NSCLC, 66.8 µM in the assay with U251 CNS and 49.9 µM with NCI-H23 lung.
Regarding `N#Cc1c(N2CCCC2)ncn(Cc2ccccc2)c1=O`, the TGI with TK-10 renal, with K-562 leukemia, in the assay on UO-31 renal, in the assay with RPMI-8226 leukemia, in the assay with OVCAR-8 ovarian and in the assay with MDA-MB-435 was more than 100 µM in each case. Also, the TGI in the assay on ACHN renal, in the assay with HOP-62 NSCLC and in the assay with U251 CNS was more than 100 µM in each case.
On to `C(=C\c1ccccc1)/C=N/c1nc2cc3sc(/N=C/C=C/c4ccccc4)nc3cc2s1`, for which the TGI in the assay on TK-10 renal, with K-562 leukemia, in the assay with UO-31 renal, in the assay with RPMI-8226 leukemia, in the assay on OVCAR-8 ovarian and in the assay with MDA-MB-435 was more than 100 µM in each case. The TGI with ACHN renal, with HOP-62 NSCLC, in the assay on U251 CNS and in the assay with NCI-H23 lung was more than 100 µM each time.
Regarding `COC(=O)n1c(=O)n(-c2ccccc2)c(=O)n1C(=O)OC`, the TGI with TK-10 renal, with K-562 leukemia, in the assay on UO-31 renal, in the assay on RPMI-8226 leukemia, in the assay with OVCAR-8 ovarian and in the assay on MDA-MB-435 was more than 100 µM each time. In addition, the TGI in the assay on U251 CNS and in the assay on NCI-H23 lung was more than 100 µM in each case.
Consider `CCCCc1ccc(Nc2ncc3[nH]cnc3n2)cc1`, for which the TGI is 30.9 µM in the assay with TK-10 renal; more than 100 µM in the assay with K-562 leukemia; 37.9 µM in the assay with UO-31 renal; 71.2 µM in the assay on RPMI-8226 leukemia; 36.3 µM in the assay with OVCAR-8 ovarian; more than 100 µM with MDA-MB-435. The TGI with ACHN renal was 31.7 µM; in the assay on HOP-62 NSCLC, 37.2 µM; with U251 CNS it was 60.4 µM; in the assay with NCI-H23 lung it was 35.4 µM.
For the compound `COC(=O)/C=C(/C(=O)OC)c1c(C)c(C)c2c(C)cc(C)cc(C)c1-2`, the TGI in the assay with TK-10 renal, in the assay with K-562 leukemia, in the assay on UO-31 renal, in the assay with RPMI-8226 leukemia, in the assay with OVCAR-8 ovarian and in the assay with MDA-MB-435 was more than 100 µM in each case. Moreover, the TGI in the assay on ACHN renal was more than 100 µM; in the assay with HOP-62 NSCLC, 81 µM; in the assay on U251 CNS, more than 100 µM; with NCI-H23 lung, more than 100 µM.
On to `COC(=O)c1cc(C#N)[nH]c1-c1ccc(C)s1`, for which the TGI in the assay on K-562 leukemia, with UO-31 renal, with RPMI-8226 leukemia, in the assay with OVCAR-8 ovarian, with MDA-MB-435 and in the assay with ACHN renal was more than 100 µM throughout. The TGI with HOP-62 NSCLC, in the assay with U251 CNS and in the assay with NCI-H23 lung was more than 100 µM throughout.
For `Fc1ccc(N=NN2CCCC2)cc1`, the TGI with TK-10 renal, in the assay on K-562 leukemia, with UO-31 renal, with RPMI-8226 leukemia, with MDA-MB-435 and in the assay with ACHN renal was more than 100 µM throughout. The TGI in the assay with HOP-62 NSCLC, in the assay with U251 CNS and in the assay on NCI-H23 lung was more than 100 µM each time.
`C=CCNC(=O)NC1=CSC2=NC(=O)C3(NN12)c1ccccc1-c1ccccc13`: the TGI with TK-10 renal, in the assay on K-562 leukemia, with UO-31 renal, in the assay on RPMI-8226 leukemia, in the assay on OVCAR-8 ovarian and with MDA-MB-435 was more than 10 µM in each case. Moreover, the TGI with ACHN renal, with HOP-62 NSCLC and in the assay on NCI-H23 lung was more than 10 µM each time.
For the compound `CNC(=O)c1cc(NC(=O)N(CCC#N)CCN(C(=O)N[C@@H](Cc2ccccc2)C(=O)N[C@@H](CC(C)C)C(=O)NC)c2ccccc2)ccc1OC`, the TGI in the assay with TK-10 renal is more than 100 µM; in the assay on UO-31 renal, more than 100 µM; in the assay with RPMI-8226 leukemia, more than 88.3 µM; with OVCAR-8 ovarian it was more than 100 µM; in the assay with MDA-MB-435 it was more than 100 µM; in the assay with ACHN renal, more than 100 µM. Moreover, the TGI in the assay with HOP-62 NSCLC, in the assay with U251 CNS and in the assay on NCI-H23 lung was more than 100 µM each time.
Turning to `[N-]=[N+]=CC(=O)OCC1SCCCS1`, the TGI in the assay with TK-10 renal, in the assay with K-562 leukemia, in the assay with UO-31 renal, in the assay with RPMI-8226 leukemia, with MDA-MB-435 and with ACHN renal was more than 100 µM in each case. In addition, the TGI in the assay with HOP-62 NSCLC, in the assay with U251 CNS and in the assay on NCI-H23 lung was more than 100 µM each time.
For the compound `O=C(CCCCCCCCC(=O)N1C(=O)CC(=O)N(c2cccc(Cl)c2)C1=S)N1C(=O)CC(=O)N(c2cccc(Cl)c2)C1=S`, the TGI with TK-10 renal, with UO-31 renal, with RPMI-8226 leukemia, in the assay on OVCAR-8 ovarian, in the assay on MDA-MB-435 and in the assay with ACHN renal was more than 100 µM each time. Besides, the TGI in the assay on HOP-62 NSCLC, in the assay with U251 CNS and in the assay with NCI-H23 lung was more than 100 µM in each case.
As to `C#CC(F)(F)[C@]1(O)CC[C@H]2[C@@H]3CCC4=CC(=O)CCC4=C3[C@@H](c3ccc(C(C)=O)cc3)C[C@@]21C`, the GI50 in the assay on TK-10 renal is 24.9 µM; in the assay on K-562 leukemia it was 8.64 µM; in the assay with RPMI-8226 leukemia, 0.333 µM; with OVCAR-8 ovarian it was 21.1 µM; with MDA-MB-435, 13.9 µM; in the assay on ACHN renal it was 10.1 µM. The GI50 is 18.7 µM with HOP-62 NSCLC and 17.7 µM in the assay with U251 CNS. Also, the TGI in the assay with TK-10 renal was 71.4 µM; with K-562 leukemia, more than 100 µM; in the assay on RPMI-8226 leukemia, 6.25 µM; with OVCAR-8 ovarian it was more than 90.6 µM; in the assay with MDA-MB-435, 52 µM; in the assay on ACHN renal it was 97 µM. Besides, the TGI was 73.8 µM in the assay on HOP-62 NSCLC and more than 92.9 µM with U251 CNS.
Take `CCOC(=O)CNC(=O)C(C)NC(=O)C(NC(=O)CC(c1ncc[nH]1)c1ncc[nH]1)C(C)CC` (stereo not drawn): the TGI in the assay on TK-10 renal, in the assay with K-562 leukemia, with UO-31 renal, in the assay on RPMI-8226 leukemia, with OVCAR-8 ovarian and with MDA-MB-435 was more than 100 µM in each case. For the same compound, the TGI in the assay on ACHN renal, in the assay on U251 CNS and with NCI-H23 lung was more than 100 µM each time.
With `CSc1c(C#N)c(=O)[nH]c2n[nH]c(C)c12`, the TGI in the assay with TK-10 renal, in the assay on K-562 leukemia, in the assay with UO-31 renal, in the assay with RPMI-8226 leukemia, with OVCAR-8 ovarian and in the assay with MDA-MB-435 was more than 100 µM each time. Moreover, the TGI with U251 CNS and in the assay on NCI-H23 lung was more than 100 µM each time.
